Tests used:
[1] = test system: rhythmic bladder contractions induced by substance P; experiment: Inhibitory effect on the rhythmic bladder contractions induced by substance P in anesthetized rats; type: in vivo, rat; details: time during which frequency of rhythmic contraction was completely inhibited, 0.25 mg/kg of the compound, substance P infusion
How it was run: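 Urethane-anesthetized female Sprague-Dawley rats with rhythmic bladder contractions driven by i.v. substance P (0.33 μg/kg/min). Compound given i.v. in saline/0.5% Tween 80 once contractions stable 15 min; intravesical pressure monitored, duration of 100% inhibition ranked A ≥20, B ≥10, C <10 min.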

[2] = test system: isolated rabbit urinary bladder; experiment: Relaxation effect on potassium-induced contraction of isolated rabbit urinary bladder; type: cell-based; details: Oryctolagus cuniculus; 50% relaxation concentration; high-K+ (30 mM) pre-contracted rabbit bladder strips; relaxation as percentage of the maximum produced by 0.1 mM papaverine; read-out: EC50 value range
How it was run: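 Mucosa-free longitudinal bladder strips from male NZW rabbits, held at 37 °C in Krebs solution gassed with 95% O2/5% CO2, were precontracted with 30 mM K+. Compounds were added cumulatively (10^−8–10^−4 M), with isometric relaxation expressed relative to 0.1 mM papaverine maximum. EC50 was derived and reported as rank ranges.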

melting point | EC50 [2] [nM] | SMILES | 100% inhibition time range [1]
270 to 273 °C (dec.) | – | CCc1[nH]c(-c2ccc(C)nc2)nc1-c1cccnc1.Cl.Cl.Cl | –
234 to 238 °C (dec.) | – | Cl.O=C(O)Cc1nc(-c2ccc(Cl)s2)oc1-c1cccnc1 | –
– | 1000 to 3000 | CCc1[nH]c(-c2ccsc2C(C)O)nc1-c1cccnc1.Cl.Cl (stereo not drawn) [Preparation Example 486, 2-[2-(1-hydroxyethyl)thiophen-3-yl]-5-ethyl-4-(3-pyridyl)-imidazole dihydrochloride] | B (A≧20>B≧10>C (minute))
– | 500 to 1000 | O=C([O-])Cc1oc(-c2ccc(F)cc2)nc1-c1ccc(Cl)s1.[Na+] [Preparation Example 487, 4-(5-chloro-thiophen-2-yl)-2-(4-fluorophenyl)oxazol-5-yl acetic acid sodium salt] | C (A≧20>B≧10>C (minute))
– | 1000 to 3000 | O=C(O)Cc1oc(-c2cc3ccccc3s2)nc1-c1ccc(Cl)s1 [Preparation Example 503] | A (A≧20>B≧10>C (minute))
– | 1000 to 3000 | CN(C)c1ccc(-c2nc(-c3ccc(Cl)s3)c(CC(=O)O)o2)cn1 [Preparation Example 504] | C (A≧20>B≧10>C (minute))
– | ≤ 500 | O=C(O)Cc1oc(-c2ccc(F)cc2)nc1-c1ccc(Cl)cc1 [Preparation Example 511] | C (A≧20>B≧10>C (minute))
– | 500 to 1000 | CN(C)c1ncc(-c2nc(-c3ccc(Cl)s3)c(CC(=O)O)o2)cn1 [Preparation Example 512] | B (A≧20>B≧10>C (minute))
– | 500 to 1000 | CN(C)c1ccc(-c2nc(-c3ccc(Cl)cc3)c(CC(=O)O)o2)cn1 [Preparation Example 514] | B (A≧20>B≧10>C (minute))
– | ≤ 500 | COc1ccc(-c2nc(-c3ccc(Cl)cc3)c(CC(=O)O)o2)cc1 [Preparation Example 517] | C (A≧20>B≧10>C (minute))
– | 1000 to 3000 | O=C(O)Cc1nc(-c2ccc(F)cc2)oc1-c1ccc[nH]1 [Preparation Example 524] | B (A≧20>B≧10>C (minute))
– | 1000 to 3000 | CN(c1ccc(-c2nc(CC(=O)O)c(-c3ccc(Cl)s3)o2)cn1)C1CC1 [Preparation Example 531] | C (A≧20>B≧10>C (minute))
– | 1000 to 3000 | CSc1ncc(-c2nc(-c3ccc(Cl)s3)c(CC(=O)O)s2)cn1 [Preparation Example 572] | C (A≧20>B≧10>C (minute))
– | 1000 to 3000 | O=C(O)Cc1sc(-c2cc3ccccc3s2)nc1-c1ccc(Cl)cc1 [Preparation Example 574] | B (A≧20>B≧10>C (minute))
– | ≤ 500 | COc1ccc(-c2nc(-c3ccc(Cl)cc3)c(CC(=O)O)s2)cc1 [Preparation Example 575] | B (A≧20>B≧10>C (minute))
– | 500 to 1000 | CN(C)c1ccc(-c2nc(-c3ccc(Cl)cc3)c(CC(=O)O)s2)cn1 [Preparation Example 576] | A (A≧20>B≧10>C (minute))
– | 500 to 1000 | COc1ccc(-c2nc(-c3cccs3)c(CC(=O)O)s2)cc1 [Preparation Example 578] | B (A≧20>B≧10>C (minute))
– | 500 to 1000 | CN(C)c1ccc(-c2nc(-c3cccs3)c(CC(=O)O)s2)cn1 [Preparation Example 579] | C (A≧20>B≧10>C (minute))
– | 1000 to 3000 | O=C(O)Cc1sc(-c2ccc(F)cc2)nc1-c1ccc(Cl)c(F)c1 [Preparation Example 584] | A (A≧20>B≧10>C (minute))
– | ≤ 500 | CCOc1ccc(-c2nc(-c3ccc(Cl)s3)c(CC(=O)O)s2)cn1 [Preparation Example 586] | B (A≧20>B≧10>C (minute))
– | 500 to 1000 | Cc1cc(-c2nc(-c3ccc(Cl)s3)c(CC(=O)O)s2)sc1C [Preparation Example 587] | A (A≧20>B≧10>C (minute))
– | ≤ 500 | CSc1ccc(-c2nc(-c3ccc(Cl)s3)c(CC(=O)O)s2)cc1 [Preparation Example 590] | B (A≧20>B≧10>C (minute))
– | ≤ 500 | O=C(O)Cc1sc(-c2ccc(F)cc2)nc1-c1ccsc1 [Preparation Example 594] | C (A≧20>B≧10>C (minute))
– | 1000 to 3000 | CN(C)c1ccc(-c2nc(-c3ccsc3)c(CC(=O)O)s2)cn1 [Preparation Example 596] | B (A≧20>B≧10>C (minute))
– | ≤ 500 | CN(C)c1ncc(-c2nc(-c3ccc(Cl)s3)c(CC(=O)O)s2)cn1 [Preparation Example 600] | A (A≧20>B≧10>C (minute))
– | 500 to 1000 | CN(C)c1ncc(-c2nc(-c3ccc(Cl)cc3)c(CC(=O)O)s2)cn1 [Preparation Example 601] | A (A≧20>B≧10>C (minute))

melting point | EC50 [2] [nM] | SMILES | 100% inhibition time range [1]
– | 500 to 1000 | COc1ccc(-c2nc(CC(=O)O)c(-c3ccc(Cl)s3)s2)cc1 [Preparation Example 609] | B (A≧20>B≧10>C (minute))
– | ≤ 500 | O=C(O)Cc1nc(-c2cc3ccccc3s2)sc1-c1ccc(Cl)s1 [Preparation Example 610] | B (A≧20>B≧10>C (minute))
– | ≤ 500 | Cc1cc(-c2nc(CC(=O)O)c(-c3ccc(Cl)s3)s2)sc1C [Preparation Example 612] | A (A≧20>B≧10>C (minute))
– | 1000 to 3000 | CCNC(=O)Cc1nc(-c2ccc(F)cc2)oc1-c1ccsc1 [Preparation Example 616] | B (A≧20>B≧10>C (minute))
– | 1000 to 3000 | O=C(O)/C=C/c1nc(-c2ccc(F)cc2)oc1-c1ccc(Cl)s1 [Preparation Example 626] | C (A≧20>B≧10>C (minute))
– | ≤ 500 | CCc1nc(-c2cccc(Cl)c2)[nH]c1-c1cccnc1 [Preparation example 13] | C (A≧20>B≧10>C (minute))
– | 1000 to 3000 | CCc1nc(-c2ccc(Cl)s2)[nH]c1-c1cccnc1 [Preparation example 14] | A (A≧20>B≧10>C (minute))
– | 1000 to 3000 | CCc1nc(-c2ccc(C#N)s2)[nH]c1-c1cccnc1 [Preparation example 16] | B (A≧20>B≧10>C (minute))
– | ≤ 500 | Clc1ccc(-c2ncc(-c3cccnc3)[nH]2)s1 [Preparation example 25] | B (A≧20>B≧10>C (minute))
– | 1000 to 3000 | CCCc1nc(-c2cccc(F)c2)[nH]c1-c1ccccc1 [Preparation example 30] | B (A≧20>B≧10>C (minute))
– | 1000 to 3000 | CCCc1nc(-c2csc(Cl)c2)[nH]c1-c1ccccc1 [Preparation example 34] | A (A≧20>B≧10>C (minute))
– | 1000 to 3000 | CCc1nc(-c2ccc(F)cc2)[nH]c1-c1ncccn1 [Preparation example 50] | C (A≧20>B≧10>C (minute))
– | 500 to 1000 | CCc1nc(-c2ccc(C#N)cc2)[nH]c1-c1cccnc1 [Preparation example 53] | C (A≧20>B≧10>C (minute))
– | 1000 to 3000 | Cc1nc(-c2csc(Cl)c2)[nH]c1-c1cccnc1 [Preparation example 54] | B (A≧20>B≧10>C (minute))
– | 1000 to 3000 | CCc1nc(-c2csc(Cl)c2)[nH]c1-c1cccnc1 [Preparation example 55] | B (A≧20>B≧10>C (minute))
– | 500 to 1000 | CCc1nc(-c2ccc(Cl)cc2)[nH]c1-c1cccnc1 [Preparation example 56] | B (A≧20>B≧10>C (minute))
– | 500 to 1000 | CCc1nc(-c2ccc(F)cc2)[nH]c1-c1cncs1 [Preparation example 86] | B (A≧20>B≧10>C (minute))
– | 1000 to 3000 | CCCc1nc(-c2ccc(F)cc2)[nH]c1-c1ccc(F)cc1 [Preparation example 87] | B (A≧20>B≧10>C (minute))
– | 1000 to 3000 | CCCc1nc(-c2ccc(F)cc2)[nH]c1-c1ccccc1 [Preparation example 88] | B (A≧20>B≧10>C (minute))
– | 1000 to 3000 | CCCc1nc(-c2ccc(F)cc2)[nH]c1-c1ccc(N(C)C)cc1 [Preparation example 90] | B (A≧20>B≧10>C (minute))
– | 500 to 1000 | CCCc1nc(-c2ccc(F)cc2)[nH]c1-c1cccc(F)c1 [Preparation example 99] | B (A≧20>B≧10>C (minute))
– | 500 to 1000 | CCc1c(-c2cccnc2)nc(-c2ccc(F)cc2)n1CC [Preparation example 104] | A (A≧20>B≧10>C (minute))
– | 1000 to 3000 | CN(C)c1[nH]c(-c2ccc(F)cc2)nc1-c1ccccc1.Cl [Preparation example 108, 5-dimethylamino-2-(4-fluorophenyl)-4-phenylimidazole hydrochloride] | B (A≧20>B≧10>C (minute))
– | 500 to 1000 | CSCc1nc(-c2ccc(C#N)cc2)[nH]c1-c1ccccc1 [Preparation example 132] | B (A≧20>B≧10>C (minute))
– | 500 to 1000 | C[S+]([O-])Cc1nc(-c2cccc(F)c2)[nH]c1-c1ccccc1 (stereo not drawn) [Preparation example 136] | C (A≧20>B≧10>C (minute))
– | 1000 to 3000 | C[S+]([O-])Cc1[nH]c(-c2ccc(F)cc2)nc1-c1ccccc1 (stereo not drawn) [Preparation example 639] | C (A≧20>B≧10>C (minute))
